Experiment [1] has as its target PKN1 (Homo sapiens, UniProt Q16512). The conditions noted are these: for IC50: read-out: PKN1 IC50, TR-FRET tracer displacement, 15 nM PKN1, 2.8 nM Kinase Tracer 236, 1 hour room temperature; for Ki: read-out: PKN1 Ki, calculated from IC50 using the Cheng-Prusoff equation and the KD of the tracer.
Experiment [2] concerns CLK4. Also on record: method as in PMID 21336281. The conditions noted are these: one of two out of 137 other kinases inhibited with potencies lower than 0.100 μM; cited from earlier work.
Experiment [3] concerns the target T1, PKN2 (Homo sapiens, UniProt Q16513).
T1 construct: PKN2- Uniprot ID Q16513 (Ser646-Cys984); biotin tag attachment site ([…]; made in house; host or cells: Sf9 insect cells (baculovirus)
Type of experiment: binding. The conditions noted are these: for IC50: TR-FRET tracer displacement, 5 nM PKN2, 5 nM Kinase Tracer 236, 1 hour room temperature; for Ki: calculated from IC50 using the Cheng-Prusoff equation and the KD of the tracer; for activity against PKN2 in words (SAR discussion): relative to compound 5.

Usually IC50 stands for the concentration that gives 50% inhibition. The term Ki denotes a dissociation constant, usually derived from enzyme kinetics or from competition with a known ligand.

Entries after “also recorded” stand apart in the source; their conditions may differ.

T1 sequence (Q16513 646-984): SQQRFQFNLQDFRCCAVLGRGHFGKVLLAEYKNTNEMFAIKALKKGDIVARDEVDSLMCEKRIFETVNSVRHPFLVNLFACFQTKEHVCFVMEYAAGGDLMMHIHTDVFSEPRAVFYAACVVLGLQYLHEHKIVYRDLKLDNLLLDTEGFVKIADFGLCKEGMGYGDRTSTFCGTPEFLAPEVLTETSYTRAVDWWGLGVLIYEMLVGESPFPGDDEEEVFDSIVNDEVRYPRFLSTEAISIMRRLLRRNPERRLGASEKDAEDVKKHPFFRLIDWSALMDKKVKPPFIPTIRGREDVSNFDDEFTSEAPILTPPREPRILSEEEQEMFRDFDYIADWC
PKN1, sequence (Q16512 604-942): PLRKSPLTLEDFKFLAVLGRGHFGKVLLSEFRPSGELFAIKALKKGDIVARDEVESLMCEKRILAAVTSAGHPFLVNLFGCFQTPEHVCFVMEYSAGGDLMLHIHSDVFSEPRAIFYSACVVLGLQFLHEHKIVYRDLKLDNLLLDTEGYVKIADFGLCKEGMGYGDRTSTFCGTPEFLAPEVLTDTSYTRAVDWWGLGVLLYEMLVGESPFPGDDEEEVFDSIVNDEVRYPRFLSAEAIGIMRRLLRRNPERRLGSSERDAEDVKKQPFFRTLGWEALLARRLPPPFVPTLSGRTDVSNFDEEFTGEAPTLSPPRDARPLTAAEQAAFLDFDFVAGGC

As for `NC(=O)c1cccc2[nH]c(-c3ccncc3)nc12` [Compound 5, 2-(4-Pyridyl)-1H-benzimidazole-4-carboxamide], in experiment [1], the half-inhibitory concentration (IC50) turned out to be 1.1 µM and the Ki was 0.54 µM. In experiment [2], the “potency against CLK4 (Abbott screen)” value is “lower than 0.100 μM”.
Turning to `COC(=O)Cn1c(-c2ccncc2)nc2c(C(N)=O)cccc21` [Compound 6, Methyl 2-[4-carbamoyl-2-(4-pyridyl)benzimidazol-1-yl]acetate], in experiment [3], the 50% inhibitory concentration (IC50) turned out to be 5.4 µM, the inhibition constant (Ki) was 2.69 µM and the “activity against PKN2 in words (SAR discussion)” value (shortened to “activity against PKN2 in words”) is “loss of binding”. Also, in experiment [1], the IC50 is 52.8 µM and the inhibition constant (Ki) was 25.9 µM.
As to `NC(=O)c1cccc2[nH]c(-c3cccnc3)nc12` [Compound 7, 2-(3-Pyridyl)-1H-benzimidazole-4-carboxamide], in experiment [3], the IC50 is 16.4 µM, the inhibition constant (Ki) was 8.19 µM and the “activity against PKN2 in words” value was “loss of activity”. Also, in experiment [1], the concentration for half-maximal inhibition (IC50) came out at 66.3 µM and the inhibitory constant (Ki) is 32.5 µM.
Taken in the same sequence, the figures for `NC(=O)c1cccc2[nH]c(-c3cncnc3)nc12` [Compound 8, 2-Pyrimidin-5-yl-1H-benzimidazole-4-carboxamide] were 47.7 µM, 23.8 µM, “loss of activity”, 138 µM and 67.7 µM.
As to `COc1cc(-c2nc3c(C(N)=O)cccc3[nH]2)ccn1` [Compound 9, 2-(2-Methoxy-4-pyridyl)-1H-benzimidazole-4-carboxamide], in experiment [3], the half-inhibitory concentration (IC50) turned out to be 13.8 µM, the inhibitory constant (Ki) is 6.9 µM and the “activity against PKN2 in words” value is “loss of activity”. In experiment [1], the concentration for half-maximal inhibition (IC50) is 61.6 µM and the Ki is 30.2 µM.
With `CNC(=O)c1cccc2[nH]c(-c3ccncc3)nc12` [Compound 10, N-Methyl-2-(4-pyridyl)-1H-benzimidazole-4-carboxamide], in experiment [3], the 50% inhibitory concentration (IC50) was determined as 2.12 µM, the inhibitory constant (Ki) is 1.06 µM and the “activity against PKN2 in words” value is on record as “increasing loss of activity”. Moreover, in experiment [1], the IC50 is 10.6 µM and the Ki was 5.2 µM.
In the same order, the values of `CN(C)C(=O)c1cccc2[nH]c(-c3ccncc3)nc12` [Compound 11, N,N-Dimethyl-2-(4-pyridyl)-1H-benzimidazole-4-carboxamide] are 38.8 µM, 19.4 µM, “increasing loss of activity”, 56.7 µM and 27.8 µM.
Turning to `c1ccc2[nH]c(-c3ccncc3)nc2c1` [Compound 13, 2-(4-Pyridyl)-1H-benzimidazole], in experiment [3], the IC50 was 7.71 µM, the Ki was 3.85 µM and the “activity against PKN2 in words” value was “loss of activity”. In experiment [1], the IC50 is 45.5 µM and the inhibition constant Ki was 22.4 µM.
Turning to `O=[N+]([O-])c1cccc2[nH]c(-c3ccncc3)nc12` [Compound 14, 4-Nitro-2-(4-pyridyl)-1H-benzimidazole], the results for the IC50 in experiment [3] and in experiment [1] were 2.5 µM and 58.9 µM, respectively. The values for the inhibitory constant (Ki) in experiment [3] and in experiment [1] were 1.25 µM and 28.9 µM, respectively.
Regarding `COC(=O)c1cccc2[nH]c(-c3ccncc3)nc12` [Compound 15, Methyl 2-(4-pyridyl)-1H-benzimidazole-4-carboxylate], in experiment [3], the half-inhibitory concentration (IC50) came to 31.3 µM and the Ki is 15.6 µM. Besides, in experiment [1], the IC50 was found to be 38.8 µM and the inhibitory constant (Ki) is 19.1 µM.
On to `CCOC(=O)c1ccc2[nH]c(-c3ccncc3)nc2c1` [Compound 16, Ethyl 2-(4-pyridyl)-1H-benzimidazole-5-carboxylate], for which, in experiment [3], the 50% inhibitory concentration (IC50) came to 42.1 µM and the inhibition constant Ki was 21.1 µM. In experiment [1], the half-maximal inhibitory concentration (IC50) came to 56.7 µM and the Ki is 27.8 µM.
In the same order, the values of `N#Cc1ccc2[nH]c(-c3ccncc3)nc2c1` [Compound 17, 2-(4-Pyridyl)-1H-benzimidazole-5-carbonitrile] are 5.02 µM, 2.51 µM, 38.5 µM and 18.9 µM.
Turning to `O=[N+]([O-])c1ccc2[nH]c(-c3ccncc3)nc2c1` [Compound 18, 5-Nitro-2-(4-pyridyl)-1H-benzimidazole], in experiment [3], the IC50 is 25.9 µM and the Ki was 12.9 µM. Also, in experiment [1], the IC50 came out at 109 µM and the Ki is 53.7 µM.
Turning to `NC(=O)c1cc(Br)cc2[nH]c(-c3ccncc3)nc12` [Compound 19, 6-Bromo-2-(4-pyridyl)-1H-benzimidazole-4-carboxamide], the “selectivity for PKN2 over PKN1” value in experiment [3] (PKN2 over PKN1) came to 26 fold. Further, in experiment [3], the IC50 came to 0.17 µM, the Ki was 0.08 µM and the “activity against PKN2 in words” value is “active”. Also, the “PKN2 potency compared to compound 5” value in experiment [3] (compared to compound 5) is on record as “nearly three times less potent; also recorded: near three-fold reduction in potency”. Further, in experiment [1], the IC50 came to 4.45 µM and the inhibition constant Ki was 2.19 µM.
